# Values of other authors in patent US5527781A, “4-O-(aminoglycosyl)- or 4,6-di-O-(aminoglycosyl)-2,5-dideoxy-5,5-difluorostreptamine derivatives” (Zaidan Hojin Biseibutsu Kagaku Kenkyu Kai, priority 1990, dated 1996).
# Entries after “also recorded” stand apart in the source; their conditions may differ.
# Test system: bacteria
# Details: literature / earlier filings; cited from earlier work
row,SMILES,antibacterial activity compared with parent (e.g. kanamycin A)
1,NC[C@H]1O[C@H](O[C@H]2[C@H](O)[C@@H](O[C@H]3O[C@H](CO)[C@@H](O)[C@H](N)[C@H]3O)[C@H](N)C[C@@H]2N)[C@H](N)[C@@H](F)[C@@H]1O [3'-deoxy-3'-fluorokanamycin B],"improved antibacterial activities, as compared to those of their corresponding parent compounds; also recorded: remarkable antibacterial activities against various gram-positive and gram-negative bacteria, including the resistant bacteria"
2,"NC[C@@H]1C[C@H](F)[C@@H](N)[C@@H](O[C@H]2[C@H](O)[C@@H](O[C@H]3O[C@H](CO)[C@@H](O)[C@H](N)[C@H]3O)[C@H](N)C[C@@H]2N)O1 [3',4'-dideoxy-3'-fluorokanamycin B]","improved antibacterial activities, as compared to those of their corresponding parent compounds"
3,"NC[C@H]1O[C@H](O[C@H]2[C@H](O)[C@@H](O[C@H]3O[C@H](CO)[C@H](F)[C@H](N)[C@H]3O)[C@H](N)C[C@@H]2N)[C@H](O)[C@@H](O)[C@@H]1O [4""-deoxy-4""-fluoro-4""-epi-kanamycin A]",lower than that of kanamycin A
4,"NC[C@H]1O[C@H](O[C@H]2[C@@H](F)[C@@H](O[C@H]3O[C@H](CO)[C@H](O)[C@H](N)[C@H]3O)[C@H](N)C[C@@H]2N)[C@H](O)[C@@H](O)[C@@H]1O [5-deoxy-5-fluoro-5,4""-di-epi-kanamycin A]",antibacterial activities substantially as high as that of kanamycin A
5,"NC[C@H]1O[C@H](O[C@H]2[C@@H](F)[C@@H](O[C@H]3O[C@H](CF)[C@@H](O)[C@H](N)[C@H]3O)[C@H](N)C[C@@H]2N)[C@H](O)[C@@H](O)[C@@H]1O [5,6""-dideoxy-5,6""-difluoro-5-epi-kanamycin A]",antibacterial activities substantially as high as that of kanamycin A
6,"NC[C@H]1O[C@H](O[C@H]2[C@H](O)[C@@H](O[C@H]3O[C@H](CF)[C@@H](O)[C@H](N)[C@H]3O)[C@H](N)C[C@@H]2N)[C@H](O)[C@@H](O)[C@@H]1O [6""-deoxy-6""-fluorokanamycin A]",antibacterial activities substantially as high as that of kanamycin A
7,"NC[C@H]1O[C@H](O[C@H]2[C@H](O)[C@@H](O[C@H]3O[C@H](CO)[C@@H](O)[C@H](N)[C@H]3O)[C@H](N)C[C@@H]2N)[C@H](F)C[C@@H]1O [2',3'-dideoxy-2'-fluorokanamycin A]","improved antibacterial activities, as compared to those of their corresponding parent compounds"
